Data published in the NIST ThermoML archive (doi:10.1016/j.tca.2008.10.017).

Test: molar heat capacity at constant pressure
Conditions: 101.33 kPa, Crystal 2, Small (less than 1 g) adiabatic calorimetry

CCCC[N+](CCCC)(CCCC)CCCC.[I-] [tetrabutylammonium iodide]
Conditions	molar heat capacity at constant pressure [J/K/mol]
5 K	0.875
5.6 K	0.546
5.7 K	0.62
5.82 K	0.735
5.88 K	0.786
6.15 K	1.05
6.33 K	1.24
6.6 K	1.54
6.69 K	1.67
6.89 K	1.87
6.98 K	2.05
7.07 K	2.12
7.26 K	2.39
7.35 K	2.49
7.45 K	2.68
7.54 K	2.82
7.74 K	3.02
8.03 K	3.55
8.14 K	3.66
8.24 K	3.76
8.45 K	4.16
8.55 K	4.34
8.66 K	4.58
8.77 K	4.69
8.87 K	4.87
9.09 K	5.28
9.2 K	5.43
9.42 K	5.78
9.53 K	5.96
9.76 K	6.52
9.87 K	6.76
9.98 K	6.85
10 K	6.91
10.26 K	7.37
10.71 K	8.33
11.16 K	9.2
11.61 K	10.3
12.08 K	11.3
12.55 K	12.5
13.04 K	13.6
13.53 K	14.9
14.03 K	16
14.54 K	17.2
15.05 K	18.56
15.57 K	19.98
16.09 K	21.47
16.61 K	22.94
17.14 K	24.46
17.67 K	25.9
18.2 K	27.48
18.76 K	29
19.31 K	30.77
19.85 K	32.46
20 K	32.91
20.98 K	35.93
22.55 K	40.49
24.16 K	45.21
25.78 K	49.77
27.42 K	54.6
29.07 K	59.44
30 K	62.21
30.73 K	64.36
32.39 K	69.26
34.07 K	74.01
35.76 K	78.8
37.45 K	83.46
39.15 K	87.9
40 K	90.12
40.85 K	92.36
42.56 K	96.45
44.26 K	100.6
45.97 K	104.7
47.72 K	108.8
49.44 K	112.6
50 K	113.7
51.16 K	116.5
52.88 K	120.1
54.61 K	123.5
56.34 K	127.3
58.07 K	131
59.8 K	134.9
60 K	135.4
61.53 K	138.8
63.27 K	142.4
65.01 K	146.4
66.75 K	150
68.49 K	153.6
70 K	156.1
72.19 K	159.7
74.35 K	163.7
76.49 K	167.2
78.63 K	170.6
80 K	172.8
80.76 K	173.7
82.88 K	177.6
84.02 K	179.7
85.33 K	181.8
87.83 K	185.8
89.91 K	189.2
90 K	189.7
91.99 K	192.3
94.06 K	195.1
96.13 K	198.4
98.18 K	201.3
100 K	204.1
100.24 K	204.2
102.48 K	208.5
104.92 K	211.3
107.37 K	214.8
109.82 K	217.8
110 K	217.9
112.27 K	220.9
114.75 K	224.1
117.24 K	227.3
119.7 K	230.1
